Laboratory results as given in patent publication US20120122908A1, “Novel C-4 Substituted Retinoids” (University of Maryland, priority 2000, published 2012).
Where two headings read alike, the source gives them in different places.

Key:
ATRA 4-hydroxylase = ATRA 4-hydroxylase (Mesocricetus auratus, UniProt A0A1U7QD41); experiment: Hamster liver microsome assay of ATRA metabolism (ATRA 4-hydroxylase inhibition); type: biochemical; conditions: hamster liver microsomes
Description: Washed hamster liver microsomes were prepared as follows: Livers are removed from sacrificed animals, rinsed in ice-cold 0.9% NaCl solution and homogenized in a 3-fold volume of 0.25 M sucrose-0.05 M Tris-HCl (pH 7.4) using a blender. Microsomes are isolated by differential centrifugation (10,000×g, 20 minutes; 100,000×g, 60 minutes; 4° C.) using a well-known technique (Van Wauwe, J.; Van Nyen, G.; Coene, M-C.; Stoppie, P.; Cols, W.; Goossens, J, Borghgraef, P.; Janssen, P A J, Liarozole, an Inhibitor of Retinoic Acid Metabolism, Exerts Retinoid-Mimetic Effects, In Vivo. J. Pharmacol. Expt. Ther. 261, 773-779, 1992). The microsomes are suspended in PBS buffer (pH 7.4), in 1 ml aliquots and stored at −70° C. until required.
The standard reaction mixture (total of 400 μl) is composed of assay buffer, 140 μl; microsomes, 100 μl ([…]); NADPH, 100 μl ([…]); and a C-4 substituted ATRA analog dissolved in DMSO, 40 μl. After a 3 minute preincubation at 37° C., the reaction is initiated by addition of 20 μl of [11,12-^3H]-ATRA (20 μCi/ml). The incubation is carried out for 30 minutes under oxygen with shaking in a water bath at 37° C. The reaction is stopped by acidification with 0.1 ml formic acid, and the samples are extracted (×2) with EtOAc (2 ml) containing 0.05% butylated hydroxyanisole. The combined organic extracts are evaporated in vacuo, dissolved in 200 μl of the mobile phase for HPLC. An aliquot is analyzed for tritium content by liquid scintillation spectrometry. Usually, >95% of the added radioactivity is recovered. Most of the samples (150 μl) are analyzed on a 10 (m C18 Bondapak column (3.9×300 mm, Millipore), eluted with a multi-linear gradient solvent system: i, MeOH—H2O—HCOOH (60:40:0.05) containing 10 mM ammonium acetate (100 (0%) and ii, MeOH (0 (100%) at 2 ml/min. The radioactivity is measured by an on-line radio-detector. The Rts of ATRA, 4-hydroxy-ATRA and 4-oxo-ATRA are determined by UV absorbance at 350 nm in separate cuvettes. Typically, 80±5% of [11, 12-^3H]ATRA is converted into the metabolites.
The C-4 substituted ATRA analogs are tested at two concentrations, 500 and 1000 nM. IC50 and Ki values are determined.
Incubation of [11,12-^3]ATRA with hamster liver microsomes as described above results in the formation of polar metabolites, including 4-hydroxy-ATRA and 4-oxo-ATRA (see FIG. 7A). […] VN/14-1RA inhibits cytochrome P450-dependent metabolism of ATRA.
Table 2B represents repeated testing of some of the compounds in Table 2A and testing on additional compounds. For comparison, the IC50 values of liarozole and ketoconazole (known inhibitors of ATRA 4-hydroxylase) were also determined.

LNCaP cells = experiment: LNCaP cell growth, compound in combination with ATRA; type: cell-based, human; conditions: for inhibition of proliferation of LNCaP cells: 10^−8 to 10^−5 M in combination with 10^−5 M ATRA, compared with no drug or ATRA only; for concentration(s) that prevent the LNCaP cells from increasing in number: in combination with 10^−5 M ATRA, tested 10^−8 to 10^−5 M
Description: LNCaP cells are androgen-dependent cell cultures. PC-3 cells are androgen independent cell culture.
LNCaP cells are transferred into ATRA-free medium 3 days prior to start of experiments. Medium consist of phenol red-free IMEM supplemented with 5% FBS and 1% P/S. Cell are then plated into 24-well culture plates (15000 cells per well) in 1 mL of same medium. After a 24-hour attachment period, the vehicle (ethanol) or ATRA (10^−5 M) alone or ATRA in combination with a novel compound at a range of concentrations are added to triplicate wells. Medium/treatments are changed every 3 days. After 9 days of treatment, cells are removed from the wells with typsin/EDTA and counted in a Coulter counter. Using well-known methods (Wouters W, Van Dun J, Dillen A, Coene M.-C, Cools W and De Coster R, Effects of liarozole, a new antitumoral compound an retinoic acid-induced inhibition of cell growth and on retinoic acid metabolism in MCF-7 breast cancer cells, Cancer Res 52: 2841-2846, 1992), one determines the inhibitory effect of the novel compounds on LNCaP cells grown with ATRA.

[1] = Pharmacokinetic studies in mice (plasma levels by HPLC); type: in vivo; conditions: mice, 10 mg/kg s.c.
Description: FIG. 18: Plasma Levels in Balb/c Mice Following Dose of 10 mg/kg body weight Given s/c.
Pharmacokinetic studies of VN/65-4 and VN/66-1 were measured in mice and were compared to VN/14-1 and VN/50A-1. Mice were dosed s.c. at 10 mg/kg using a vehicle, 45% β-cyclodextrin in water, and plasma levels were measured by HPLC. […] The results are summarized in Table 3 below and the profiles in FIG. 18.

CYP17 (17-lyase) = target: T1, CYP17 (17-lyase) (Homo sapiens, UniProt P05093); experiment: Selectivity: effect on CYP17 (17-lyase); type: biochemical; conditions: concentration as high as 5 μM
T1 sequence (P05093 1-508): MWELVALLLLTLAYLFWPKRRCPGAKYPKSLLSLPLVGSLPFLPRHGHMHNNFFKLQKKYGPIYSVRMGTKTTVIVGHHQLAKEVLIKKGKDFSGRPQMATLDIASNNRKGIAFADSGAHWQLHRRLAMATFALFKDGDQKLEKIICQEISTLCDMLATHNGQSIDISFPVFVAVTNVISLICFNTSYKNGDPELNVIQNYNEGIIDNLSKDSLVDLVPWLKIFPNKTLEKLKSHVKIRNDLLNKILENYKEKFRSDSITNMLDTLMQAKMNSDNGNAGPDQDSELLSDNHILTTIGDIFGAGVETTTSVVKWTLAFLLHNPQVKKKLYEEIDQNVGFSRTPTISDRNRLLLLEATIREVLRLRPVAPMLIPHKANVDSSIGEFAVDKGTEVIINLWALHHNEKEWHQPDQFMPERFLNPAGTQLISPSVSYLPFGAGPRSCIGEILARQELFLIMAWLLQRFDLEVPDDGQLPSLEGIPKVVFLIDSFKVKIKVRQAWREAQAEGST
Description: (§1) The selectivity of the compounds of the present invention towards ATRA-4-hydroxylase was tested by measuring the effect on the key enzymes in the biosynthesis of estradiol and dehydroepiandrosterone, CYP19 (aromatase) and CYP17 (17-lyase), respectively.

CYP19 (aromatase) = target: T2, CYP19 (aromatase) (Homo sapiens, UniProt P11511); experiment: Selectivity: effect on CYP19 (aromatase); type: biochemical; conditions: concentration as high as 5 μM
T2 sequence (P11511 1-503): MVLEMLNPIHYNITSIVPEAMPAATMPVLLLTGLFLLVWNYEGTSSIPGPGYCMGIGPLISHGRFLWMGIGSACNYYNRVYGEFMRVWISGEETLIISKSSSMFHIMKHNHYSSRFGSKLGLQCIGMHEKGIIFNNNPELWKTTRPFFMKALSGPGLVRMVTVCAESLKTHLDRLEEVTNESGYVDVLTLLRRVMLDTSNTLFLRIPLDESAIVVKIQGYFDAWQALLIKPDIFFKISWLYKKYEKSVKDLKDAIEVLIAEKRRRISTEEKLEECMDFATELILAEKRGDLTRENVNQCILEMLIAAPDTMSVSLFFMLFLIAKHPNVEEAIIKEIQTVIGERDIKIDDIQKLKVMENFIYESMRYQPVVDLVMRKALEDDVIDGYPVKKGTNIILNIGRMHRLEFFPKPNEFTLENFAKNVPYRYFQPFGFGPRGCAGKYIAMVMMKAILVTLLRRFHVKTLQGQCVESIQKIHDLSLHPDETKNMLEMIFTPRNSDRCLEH
Description: as §1

[2] = Effect of VN/65-4 on plasma elimination of ATRA; type: in vivo; conditions: mice, VN/65-4 10 mg/kg s.c. one hour before ATRA 1.0 mg/kg s.c.
Description: FIG. 19: Plasma Concentration of ATRA (1 mg/kg) After a Dose of 10 mg/kg body weight of VN/65-4.
To determine the ability of VN/65-4 to delay the velocity of plasma elimination of ATRA, mice were treated s.c. with VN/65-4 (10 mg/kg). One hour later, the mice were administered s.c. ATRA (1.0 mg/kg) and sacrificed at various time points. […] From these experiments it is believed that it is possible to improve ATRA efficacy by reducing its enhanced metabolism to increase endogenous levels.

PC-3 tumors = experiment: Growth of PC-3 tumors in male nude mice; type: in vivo; conditions: PC-3 xenografts
Description: FIG. 20: Effect of ATRA and VN/50A-1 on PC 3 Tumor Volumes in Male Nude Mice
The effects of VN/50A-1 on tumor growth was determined in mouse xenografts and compared to ATRA as the reference treatment (FIG. 20). Mice were grouped 35 days after cell inoculation when measurable tumor volume was approximately 500 mm^3. Total tumor volume in the control mice increased 5.4-fold over 7 weeks and tumor volume in the mice treated with ATRA increased by 3.2-fold (41% reduction compared with control). In the mice treated with VN/50A-1, tumor volume increased by 3.5-fold, which was 38% reduction versus control mice, which correlated well with accumulation of ATRA in plasma and in tumors. […] VN/50A-1 is completely eliminated from plasma within 3 hour of administration to mice (see FIG. 18). The inventive compounds with longer half-lives will have favorable bioavailability and are expected to be more efficacious.

[3] = test system: ATRA 4-hydroxylase activity in LNCaP cells; experiment: Induction of ATRA metabolism in LNCaP cells; type: cell-based, human; conditions: LNCaP cells preincubated with 1.0 μM ATRA, 0.8 μM [3H]ATRA
Description: FIG. 17: Metabolism of 0.8 μM 3H-ATRA Following Induction with 1 μM ATRA in LNCaP Cells.
The potential of these cell lines to metabolize ATRA was investigated. […] LNCaP cells were preincubated with 1.0 μM ATRA for different time periods up to 48 hour. Following preincubation, ATRA metabolism was determined using 0.8 μM [11,12-^3H]ATRA. Induction of 4-hydroxylase activity ([^3H]ATRA metabolism was time-dependent with a fast onset and maximal induction achieved after a preincubation period of 18 hour (FIG. 17).

[4] = Table 2A, initial testing, read-out: IC50 Value
[5] = Table 2B, repeated testing and additional compounds, read-out: IC50 Value, Inhibition of ATRA 4-Hydroxylase

ATRA 4-hydroxylase, sequence (A0A1U7QD41 entry or part of it): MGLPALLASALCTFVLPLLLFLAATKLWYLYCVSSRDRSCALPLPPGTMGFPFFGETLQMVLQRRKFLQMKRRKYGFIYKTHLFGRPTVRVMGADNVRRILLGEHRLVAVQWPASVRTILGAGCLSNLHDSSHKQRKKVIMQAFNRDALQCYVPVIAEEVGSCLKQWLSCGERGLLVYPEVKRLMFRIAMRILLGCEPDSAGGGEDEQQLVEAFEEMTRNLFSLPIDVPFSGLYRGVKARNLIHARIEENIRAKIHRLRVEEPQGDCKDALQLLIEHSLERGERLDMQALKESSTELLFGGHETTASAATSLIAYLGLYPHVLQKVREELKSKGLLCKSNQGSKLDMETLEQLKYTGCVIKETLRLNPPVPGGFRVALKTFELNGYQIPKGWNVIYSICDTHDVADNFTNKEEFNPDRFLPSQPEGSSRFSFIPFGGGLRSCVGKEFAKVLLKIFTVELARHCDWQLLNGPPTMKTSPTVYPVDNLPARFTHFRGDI

SMILES	IC50 (ATRA 4-hydroxylase; [4]) [nM]	IC50 (ATRA 4-hydroxylase; [5]) [nM]	inhibition of proliferation of LNCaP cells (LNCaP cells)	concentration(s) that prevent the LNCaP cells from increasing in number (LNCaP cells)	also measured
CC1=C(/C=C/C(C)=C/C=C/C(C)=C/C(=O)O)C(C)(C)CCC1n1cnnc1 (racemic) [VN/17-1]	1620	25 ± 0.5	inhibit the proliferation of LNCaP cells better than no drug or ATRA only	All concentrations	–
COC(=O)C=C(C)C=CC=C(C)C=CC1=C(C)C(n2ccnc2)CCC1(C)C (mixture of isomers) [VN/65-4, (±)-4-(1H-imidazol-1-yl)-13-cis-methylretinoate]	–	–	–	–	in vivo conversion to corresponding acid [1]: rapidly and completely converted to corresponding acid; inhibition of CYP17 (17-lyase) (CYP17 (17-lyase)): barely inhibited; inhibition of CYP19 (aromatase) (CYP19 (aromatase)): barely inhibited; rate of plasma elimination of ATRA [2]: delayed the rate of ATRA elimination significantly
Clc1cccc(C(c2ccc3[nH]cnc3c2)n2ccnc2)c1 (stereo not drawn) [Liarozole, reference compound]	–	–	inhibit the proliferation of LNCaP cells better than no drug or ATRA only	10^−5 M	–
COC(=O)C=C(C)C=CC=C(C)C=CC1=C(C)C(n2cnnc2)CCC1(C)C (racemic) [VN/13-2, (±)-4-(4H-1,2,4-triazole-1-yl)methyl retinoate]	–	10 ± 0.3	–	–	–
COC(=O)C=C(C)C=CC=C(C)C=CC1=C(C)C(n2cncn2)CCC1(C)C (racemic) [VN/13-1, (±)-4-(1H-1,2,4-triazol-1-yl)methyl retinoate]	680 ± 3	1 ± 0.05	–	–	–
CC1=C(/C=C/C(C)=C/C=C/C(C)=C/C(=O)O)C(C)(C)CCC1 [ATRA, All-trans retinoic acid, reference compound]	–	–	–	–	tumor weights versus control mice (PC-3 tumors): significantly (P<0.05) lower; reduction of tumor volume compared with control (PC-3 tumors; over 7 weeks): 41%; increase of total tumor volume (PC-3 tumors; over 7 weeks, control 5.4-fold): 3.2 fold; preincubation period for maximal induction of 4-hydroxylase activity [3]: 18 h
CC1=C(/C=C/C(C)=C/C=C/C(C)=C/C(=O)O)C(C)(C)CCC1n1cncn1 (racemic) [VN/16-1, (±)-4-(1H-1,2,4-triazol-1-yl)retinoic acid]	880 ± 8	5 ± 0.25	inhibit the proliferation of LNCaP cells better than no drug or ATRA only	10^−5 M	–
